In US10597388B2, “Pyridazinone herbicides” (FMC CORPORATION, priority 2014, dated 2020):

Assays:
Type in all cases: in vivo
[1] = test system: morningglory (Ipomoea coccinea); test: Test C greenhouse herbicide test, pre- and postemergence
Summary of the method: (§1)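 Percent-control ratings (0 none, 100 complete) came from visual comparison with controls held alongside in the greenhouse for 13–15 d. Treatments covered soil application at sowing and foliar application to young plants 2–18 cm tall.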

[2] = test system: johnsongrass (Sorghum halepense); test: as above
Summary of the method: as §1

[3] = test system: ryegrass, Italian (Italian ryegrass, Lolium multiflorum); test: as above
Summary of the method: as §1

[4] = test system: galium (catchweed bedstraw, Galium aparine); test: as above
Summary of the method: as §1

[5] = test system: lambsquarters (Chenopodium album); test: as above
Summary of the method: as §1

[6] = test system: wheat (winter wheat, Triticum aestivum); test: as above
Summary of the method: as §1

[7] = test system: ragweed (common ragweed, Ambrosia elatior); test: as above
Summary of the method: as §1

[8] = test system: barnyardgrass (Echinochloa crus-galli); test: as above
Summary of the method: as §1

[9] = test system: foxtail, giant (giant foxtail, Setaria faberii); test: as above
Summary of the method: as §1

[10] = test system: crabgrass, large (large crabgrass, Digitaria sanguinalis); test: as above
Summary of the method: as §1

[11] = test system: oilseed rape (Brassica napus); test: as above
Summary of the method: as §1

[12] = test system: galium (catchweed bedstraw, Galium aparine); test: Test A greenhouse herbicide test, postemergence
Summary of the method: (§2)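 Seedlings in a loam soil and sand mix received formulated compound postemergence at the one- to two-leaf stage. Greenhouse holding lasts approximately 10 d, then injury is scored visually relative to untreated plants, 0 meaning no effect and 100 complete control.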

[13] = test system: blackgrass (Alopecurus myosuroides); test: Test A greenhouse herbicide test, postemergence
Summary of the method: as §2

[14] = Postemergence, 31 g ai/ha, scale 0 to 100 (0 no effect, 100 complete control)
[15] = Postemergence, 62 g ai/ha, 0 to 100 scale (0 no effect, 100 complete control)
[16] = Postemergence, 250 g ai/ha, scale 0 to 100, 0 no effect, 100 complete control, 13 to 15 d
[17] = Preemergence, 31 g ai/ha, scale 0 to 100, 0 is no effect, 100 is complete control
[18] = Preemergence, 62 g ai/ha, scale 0 to 100, 0 is no effect, 100 is complete control
[19] = Preemergence, 125 g ai/ha, scale 0 to 100, 0 is no effect, 100 is complete control
[20] = Preemergence, 250 g ai/ha, scale 0 to 100, 0 no effect, 100 complete control
[21] = postemergence, 125 g ai/ha, scale 0 to 100, 0 no effect, 100 complete control
[22] = 125 g ai/ha, 0 to 100 scale where 0 is no effect and 100 is complete control
[23] = 500 g ai/ha, visual rating after approx. 10 d, 0 to 100 scale (0 no effect, 100 complete control)

SMILES: Cc1nn(C)c(=O)c(-c2ccc(Cl)c3ccccc23)c1O [Compound 139]
- Plant response rating, Morningglory [1, 14]: 98
- Morningglory plant response rating [1, 15]: 100
- Plant response rating, Morningglory [1, 16]: 100
- Plant response rating, Morningglory [1, 17]: 85
- Plant response rating, Morningglory [1, 18]: 90
- Plant response rating, Morningglory [1, 19]: 95
- Morningglory plant response rating [1, 20]: 98
- Morningglory plant response rating [1, 21]: 100
- Plant response rating, Johnsongrass [2, 14]: 5
- Johnsongrass plant response rating [2, 15]: 5
- Plant response rating, Johnsongrass [2, 16]: 25
- Plant response rating, Johnsongrass [2, 17]: 5
- Plant response rating, Johnsongrass [2, 18]: 35
- Plant response rating, Johnsongrass [2, 19]: 35
- Johnsongrass plant response rating [2, 20]: 25
- Johnsongrass plant response rating [2, 21]: 15
- Plant response rating, Ryegrass, Italian [3, 14]: 5
- Ryegrass, Italian plant response rating [3, 15]: 10
- Plant response rating, Ryegrass, Italian [3, 16]: 60
- Plant response rating, Ryegrass, Italian [3, 17]: 95
- Plant response rating, Ryegrass, Italian [3, 18]: 100
- Plant response rating, Ryegrass, Italian [3, 19]: 100
- Ryegrass, Italian plant response rating [3, 20]: 100
- Ryegrass, Italian plant response rating [3, 21]: 35
- Plant response rating, Galium [4, 14]: 95
- Galium plant response rating [4, 15]: 95
- Plant response rating, Galium [4, 16]: 100
- Plant response rating, Galium [4, 17]: 90
- Plant response rating, Galium [4, 18]: 90
- Plant response rating, Galium [4, 19]: 100
- Galium plant response rating [4, 20]: 100
- Galium plant response rating [4, 21]: 100
- Plant response rating, Lambsquarters [5, 14]: 98
- Lambsquarters plant response rating [5, 15]: 95
- Plant response rating, Lambsquarters [5, 16]: 100
- Plant response rating, Lambsquarters [5, 17]: 100
- Plant response rating, Lambsquarters [5, 18]: 90
- Plant response rating, Lambsquarters [5, 19]: 95
- Lambsquarters plant response rating [5, 20]: 98
- Lambsquarters plant response rating [5, 21]: 100
- Plant response rating, Wheat [6, 14]: 45
- Wheat plant response rating [6, 15]: 55
- Plant response rating, Wheat [6, 16]: 90
- Plant response rating, Wheat [6, 17]: 0
- Plant response rating, Wheat [6, 18]: 10
- Plant response rating, Wheat [6, 19]: 15
- Wheat plant response rating [6, 20]: 10
- Wheat plant response rating [6, 21]: 60
- Plant response rating, Ragweed [7, 14]: 0
- Ragweed plant response rating [7, 15]: 0
- Plant response rating, Ragweed [7, 16]: 0
- Plant response rating, Ragweed [7, 17]: 75
- Plant response rating, Ragweed [7, 18]: 90
- Plant response rating, Ragweed [7, 19]: 95
- Ragweed plant response rating [7, 20]: 100
- Ragweed plant response rating [7, 21]: 0
- Plant response rating, Barnyardgrass [8, 14]: 25
- Barnyardgrass plant response rating [8, 15]: 20
- Plant response rating, Barnyardgrass ([8]; Postemergence, 125 g ai/ha, scale 0 to 100, 0 is no effect, 100 is complete control): 40
- Plant response rating, Barnyardgrass [8, 16]: 60
- Plant response rating, Barnyardgrass [8, 17]: 20
- Plant response rating, Barnyardgrass [8, 18]: 55
- Plant response rating, Barnyardgrass [8, 19]: 75
- Barnyardgrass plant response rating [8, 20]: 95
- Plant response rating, Foxtail, Giant [9, 14]: 20
- Foxtail, Giant plant response rating [9, 15]: 30
- Plant response rating, Foxtail, Giant [9, 16]: 60
- Plant response rating, Foxtail, Giant [9, 17]: 35
- Plant response rating, Foxtail, Giant [9, 18]: 65
- Plant response rating, Foxtail, Giant [9, 19]: 85
- Foxtail, Giant plant response rating [9, 20]: 95
- Foxtail, Giant plant response rating [9, 21]: 30
- Plant response rating, Crabgrass, Large [10, 14]: 20
- Crabgrass, Large plant response rating [10, 15]: 10
- Plant response rating, Crabgrass, Large [10, 16]: 40
- Plant response rating, Crabgrass, Large [10, 17]: 5
- Plant response rating, Crabgrass, Large [10, 18]: 30
- Plant response rating, Crabgrass, Large [10, 19]: 20
- Crabgrass, Large plant response rating [10, 20]: 50
- Crabgrass, Large plant response rating [10, 21]: 30
- Plant response rating, Oilseed Rape [11, 14]: 95
- Oilseed Rape plant response rating [11, 15]: 95
- Plant response rating, Oilseed Rape [11, 16]: 95
- Plant response rating, Oilseed Rape [11, 17]: 20
- Plant response rating, Oilseed Rape [11, 18]: 98
- Plant response rating, Oilseed Rape [11, 19]: 98
- Oilseed Rape plant response rating [11, 20]: 100
- Oilseed Rape plant response rating [11, 21]: 98
- Plant response rating, Galium [12, 22]: 100
- Plant response rating, Galium [12, 23]: 100
- Plant response rating, Blackgrass [13, 22]: 60
- Plant response rating, Blackgrass [13, 23]: 90
